Experimental data from patent US20250171423A1, “PHARMACEUTICAL COMPOUNDS FOR THE TREATMENT OF COMPLEMENT MEDIATED DISORDERS” (Achillion Pharmaceuticals, Inc., priority 2020, published 2025).

Molecular target: T1, Human complement C1s enzyme (Homo sapiens, UniProt P09871)
T1 construct: purified from human serum, Complement Technology, Inc; purchased Complement Technology, Inc; host or cells: human serum
T1 sequence (P09871 438-688 limits assumed): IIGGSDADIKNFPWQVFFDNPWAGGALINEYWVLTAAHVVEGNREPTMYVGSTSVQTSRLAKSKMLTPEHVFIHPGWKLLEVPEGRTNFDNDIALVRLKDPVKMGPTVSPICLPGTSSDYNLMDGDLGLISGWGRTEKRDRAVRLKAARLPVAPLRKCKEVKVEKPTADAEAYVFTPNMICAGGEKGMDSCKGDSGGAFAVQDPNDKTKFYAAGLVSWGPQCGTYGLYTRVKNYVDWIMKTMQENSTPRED
T1 sequence (P09871 16-437 partner limits assumed): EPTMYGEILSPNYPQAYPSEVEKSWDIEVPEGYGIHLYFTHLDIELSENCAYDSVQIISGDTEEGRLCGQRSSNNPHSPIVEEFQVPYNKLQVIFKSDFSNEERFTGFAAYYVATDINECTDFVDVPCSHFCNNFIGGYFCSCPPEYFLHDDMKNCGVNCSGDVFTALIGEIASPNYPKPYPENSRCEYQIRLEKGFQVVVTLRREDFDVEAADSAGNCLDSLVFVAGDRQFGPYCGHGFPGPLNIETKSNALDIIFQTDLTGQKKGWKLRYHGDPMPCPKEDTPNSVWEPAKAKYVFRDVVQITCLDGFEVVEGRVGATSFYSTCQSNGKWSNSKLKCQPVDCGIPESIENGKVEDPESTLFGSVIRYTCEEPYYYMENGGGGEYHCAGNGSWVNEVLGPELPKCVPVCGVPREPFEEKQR
Test: Human C1s Enzyme Assay
Type: biochemical
Conditions: human C1s 1.16 nM, 5 min preincubation, substrate Z-L-Lys-SBzl 100 μM, A405; read-out: C1s Protease Activity
Method in brief: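 C1s purified from human serum (1.16 nM final) was preincubated with compound for 5 min at room temperature in 50 mM Tris, 1 M NaCl, pH 7.5. Z-L-Lys-SBzl and DTNB were then added at 100 μM each, and A405 was followed for 30 min. IC50 came from nonlinear regression of reaction rates.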

SMILES	IC50 [nM]
N=C(N)c1csc(CNC(=O)[C@@H]2CC3(CC3)CN2C(=O)CNC(=O)CCCOc2ccccc2)c1 [Compound 55, (S)-N-((4-carbamimidoylthiophen-2-yl)methyl)-5-((4-phenoxybutanoyl)glycyl)-5-azaspiro[2.4]heptane-6-carboxamide]	< 100
N=C(N)c1csc(CNC(=O)[C@@H]2C[C@@]3(CN2C(=O)CNC(=O)CCCOc2ccccc2)CC3(F)F)c1 [Compound 56, (3S,6S)-N-((4-carbamimidoylthiophen-2-yl)methyl)-1,1-difluoro-5-((4-phenoxy-butanoyl)glycyl)-5-azaspiro[2.4]heptane-6-carboxamide]	< 100
N=C(N)c1csc(CNC(=O)[C@@H]2C[C@]3(CN2C(=O)CNC(=O)CCCOc2ccccc2)CC3(F)F)c1 [Compound 57, (3R,6S)-N-((4-carbamimidoylthiophen-2-yl)methyl)-1,1-difluoro-5-((4-phenoxy-butanoyl)glycyl)-5-azaspiro[2.4]heptane-6-carboxamide]	< 100
C[C@@]12C[C@@H]1N(C(=O)CNC(=O)CCOc1ccccc1)[C@H](C(=O)NCc1cc(C(=N)N)cs1)C2 [Compound 58, (1S,3S,5S)-N-((4-carbamimidoylthiophen-2-yl)methyl)-5-methyl-2-((3-phenoxy-propanoyl)glycyl)-2-azabicyclo[3.1.0]hexane-3-carboxamide]	< 100
N=C(N)c1csc(CNC(=O)[C@@H]2C[C@H](C(F)(F)F)CN2C(=O)CNC(=O)CCCOc2ccccc2)c1 [Compound 59, (2S,4S)-N-((4-carbamimidoylthiophen-2-yl)methyl)-1-((4-phenoxybutanoyl)glycyl)-4-(trifluoromethyl)pyrrolidine-2-carboxamide]	< 100
N=C(N)c1csc(CNC(=O)[C@@H]2C[C@@H](C(F)(F)F)CN2C(=O)CNC(=O)CCCOc2ccccc2)c1 [Compound 60, (2S,4R)-N-((4-carbamimidoylthiophen-2-yl)methyl)-1-((4-phenoxybutanoyl)glycyl)-4-(trifluoromethyl)pyrrolidine-2-carboxamide]	< 100
N=C(N)c1csc(CNC(=O)[C@@H]2C[C@@H](C3CCCCC3)CN2C(=O)CNC(=O)c2ccc(Oc3ccccc3)cc2)c1 [Compound 61, (2S,4S)-N-((4-carbamimidoylthiophen-2-yl)methyl)-4-cyclohexyl-1-((4-phenoxy-benzoyl)glycyl)pyrrolidine-2-carboxamide]	100 to 1000
N=C(N)c1csc(CNC(=O)[C@@H]2CC(O)(C(F)(F)F)CN2C(=O)CNC(=O)CCCOc2ccccc2)c1 (stereo partly drawn) [Compound 62, (2S)-N-((4-carbamimidoylthiophen-2-yl)methyl)-4-hydroxy-1-((4-phenoxybutanoyl)-glycyl)-4-(trifluoromethyl)pyrrolidine-2-carboxamide]	< 100
COC[C@@]12C[C@@H]1N(C(=O)CNC(=O)CCCOc1ccccc1)[C@H](C(=O)NCc1cc(C(=N)N)cs1)C2 [Compound 63, (1S,3S,5R)-N-((4-carbamimidoylthiophen-2-yl)methyl)-5-(methoxymethyl)-2-((4-phenoxybutanoyl)glycyl)-2-azabicyclo[3.1.0]hexane-3-carboxamide]	< 100
Cc1ccc(OCCCC(=O)NCC(=O)N2CC3(C[C@H]2C(=O)NCc2cc(C(=N)N)cs2)OCCO3)cc1 [Compound 64, (S)-N-((4-carbamimidoylthiophen-2-yl)methyl)-7-((4-(p-tolyloxy)butanoyl)glycyl)-1,4-dioxa-7-azaspiro[4.4]nonane-8-carboxamide]	< 100
N=C(N)c1csc(CNC(=O)[C@@H]2CC3(CN2C(=O)CNC(=O)CCCOc2ccc(F)cc2)OCCO3)c1 [Compound 65, (S)-N-((4-carbamimidoylthiophen-2-yl)methyl)-7-((4-(4-fluorophenoxy)butanoyl)glycyl)-1,4-dioxa-7-azaspiro[4.4]nonane-8-carboxamide]	< 100
